Active and inactive are the calls of the source. No cut-off for these calls is given here. Where a SMILES comes first, the peptide text is derived from it. [ ]: non-standard residue; d: D form. βAla = NCCC(=O)O
Legend:
[1] = test system: Monoclonal antibody (mAb) 3E7; assay: Affinity towards anti-beta-endorphin MAb(Clone 3-E7) using [3H][Leu5]-enkephalin as labeled ligand
[2] = test system: Monoclonal antibody (mAb) 3E7; assay: Affinity towards anti-beta-endorphin MAb(Clone 3-E7) using [3H][Leu5]-enkephalin as labeled ligand at 10 uM concentration; not active
[3] = test system: Monoclonal antibody (mAb) 3E7; assay: Affinity of compound towards anti-beta-endorphin MAb(Clone 3-E7) using [3H]-[Leu5]-enkephalin as labeled ligand

Structure (SMILES)	IC50 [1] [µM]	Activity [2]	EC50 [3] [µM]
CC(C)C[C@H](NC(=O)[C@H](C)NC(=O)CNC(=O)[C@@H](N)Cc1ccc(O)cc1)C(=O)N[C@@H](CCC(N)=O)C(=O)O (H-YGALQ-OH)	1.98	inactive	–
CSCC[C@H](NC(=O)[C@@H]1CCCN1C(=O)[C@H](C)NC(=O)CNC(=O)[C@@H](N)Cc1ccc(O)cc1)C(=O)O (H-YGAPM-OH)	–	–	0.052
C[C@H](NC(=O)[C@H](Cc1ccccc1)NC(=O)CNC(=O)CNC(=O)[C@@H](N)Cc1ccc(O)cc1)C(=O)O (H-YGGFA-OH)	0.0329	inactive	–
C[C@@H](O)[C@H](NC(=O)[C@H](Cc1ccccc1)NC(=O)CNC(=O)CNC(=O)[C@@H](N)Cc1ccc(O)cc1)C(=O)O (H-YGGFT-OH)	0.0369	inactive	–
CC(C)C[C@H](NC(=O)CNC(=O)CNC(=O)[C@@H](N)Cc1ccc(O)cc1)C(=O)N[C@@H](CO)C(=O)O (H-YGGLS-OH)	0.726	inactive	–
CSCC[C@H](NC(=O)CNC(=O)CNC(=O)[C@@H](N)Cc1ccc(O)cc1)C(=O)N[C@H](C(N)=O)C(C)C (H-YGGMV-NH2)	14	–	–
CSCC[C@H](NC(=O)CNC(=O)CNC(=O)[C@@H](N)Cc1ccc(O)cc1)C(=O)N[C@H](C(=O)O)C(C)C (H-YGGMV-OH)	8.78	inactive	–
CSCC[C@H](NC(=O)CNC(=O)CNC(=O)[C@@H](N)Cc1ccc(O)cc1)C(=O)N[C@H](C(=O)NCCC(N)=O)C(C)C (H-YGGMV[βAla]-NH2)	7.16	–	–
CSCC[C@H](NC(=O)CNC(=O)CNC(=O)[C@@H](N)Cc1ccc(O)cc1)C(=O)N[C@H](C(=O)NCCC(=O)O)C(C)C (H-YGGMV[βAla]-OH)	5.14	–	–
CC(C)C[C@H](NC(=O)[C@H](Cc1ccccc1)NC(=O)CNC(=O)CNC(=O)[C@@H](N)Cc1ccc(O)cc1)C(N)=O [[LEU5]ENKEPHALIN]	0.0273	–	–

Reference: ChEMBL document CHEMBL1150994, “The chemical synthesis of large random peptide libraries and their use for the discovery of ligands for macromolecular acceptors” (Bioorg Med Chem Lett, 1993)
